Test results published in patent US20230278972A1, “SUBSTITUTED HALOALKYL SULFONANILIDE HERBICIDES” (FMC Corporation, priority 2020, published 2023).

How the values were obtained:
Assay type in all cases: in vivo
[1] = test system: barnyardgrass (Echinochloa crus-galli); experiment: Test A preemergence, barnyardgrass; conditions: Preemergence, 0 to 100 scale (0 no effect, 100 complete control)
How it was run: (§1)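 Test chemicals, formulated in a non-phytotoxic solvent mixture with surfactant, were sprayed postemergence on plants 2 to 10 cm tall at the one- to two-leaf stage. Preemergence treatment was a directed soil spray onto freshly seeded pots. Both used a loam soil and sand blend.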

kochia (Bassia scoparia) [2] = experiment: Test A preemergence, kochia; conditions: Preemergence, 0 to 100 scale (0 no effect, 100 complete control)
How it was run: as §1

[3] = test system: ragweed (common ragweed, Ambrosia artemisiifolia); experiment: Test A preemergence, ragweed; conditions: Preemergence, 0 to 100 scale (0 no effect, 100 complete control)
How it was run: as §1

[4] = test system: Ryegrass, Italian (Italian ryegrass, Lolium multiflorum); experiment: Test A preemergence, Ryegrass, Italian; conditions: Preemergence, 0 to 100 scale (0 no effect, 100 complete control)
How it was run: as §1

[5] = test system: Foxtail, Giant (giant foxtail, Setaria faberi); experiment: Test A preemergence, Foxtail, Giant; conditions: Preemergence, 0 to 100 scale (0 no effect, 100 complete control)
How it was run: as §1

[6] = test system: pigweed (Amaranthus retroflexus); experiment: Test A preemergence, pigweed; conditions: 0 to 100 scale (0 no effect, 100 complete control)
How it was run: (§2)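 Greenhouse pot test in a loam–sand blend; compounds delivered in a non-phytotoxic solvent carrying a surfactant, applied either as a directed spray to soil at seeding or over seedlings 2 to 10 cm high with one to two leaves.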

[7] = test system: barnyardgrass (Echinochloa crus-galli); experiment: Test A postemergence, barnyardgrass; conditions: Postemergence, 0 to 100 scale (0 no effect, 100 complete control); for Plant response rating, Barnyardgrass: 125 g ai/ha; for Barnyardgrass plant response rating: 500 g ai/ha, visual injury vs untreated controls after approx. 10 days
How it was run: as §2

kochia (Bassia scoparia) [8] = experiment: Test A postemergence, kochia; conditions: Postemergence, 0 to 100 scale (0 no effect, 100 complete control); for Plant response rating, Kochia: 125 g ai/ha; for Kochia plant response rating: 500 g ai/ha, visual injury vs untreated controls after approx. 10 days
How it was run: as §1

[9] = test system: ragweed (common ragweed, Ambrosia artemisiifolia); experiment: Test A postemergence, ragweed; conditions: Postemergence, 0 to 100 scale (0 no effect, 100 complete control); for Plant response rating, Ragweed: 125 g ai/ha; for Ragweed plant response rating: 500 g ai/ha, visual injury vs untreated controls after approx. 10 days
How it was run: as §1

[10] = test system: Ryegrass, Italian (Italian ryegrass, Lolium multiflorum); experiment: Test A postemergence, Ryegrass, Italian; conditions: Postemergence, 0 to 100 scale (0 no effect, 100 complete control); for Plant response rating, Ryegrass, Italian: 125 g ai/ha; for Ryegrass, Italian plant response rating: 500 g ai/ha, visual injury vs untreated controls after approx. 10 days
How it was run: as §1

[11] = test system: Foxtail, Giant (giant foxtail, Setaria faberi); experiment: Test A postemergence, Foxtail, Giant; conditions: Postemergence, 0 to 100 scale (0 no effect, 100 complete control); for Plant response rating, Foxtail, Giant: 125 g ai/ha; for Foxtail, Giant plant response rating: 500 g ai/ha, visual injury vs untreated controls after approx. 10 days
How it was run: as §1

[12] = test system: pigweed (Amaranthus retroflexus); experiment: Test A postemergence, pigweed; conditions: Postemergence, 0 to 100 scale (0 no effect, 100 complete control); for Plant response rating, Pigweed: 125 g ai/ha; for Pigweed plant response rating: 500 g ai/ha, visual injury vs untreated controls after approx. 10 days
How it was run: as §1

[13] = test system: wheat (Triticum aestivum); experiment: Test A postemergence, wheat; conditions: Postemergence, 0 to 100 scale (0 no effect, 100 complete control); for Plant response rating, Wheat: 125 g ai/ha; for Wheat plant response rating: 500 g ai/ha, visual injury vs untreated controls after approx. 10 days
How it was run: as §2

corn (Zea mays) = experiment: Test A postemergence, corn; conditions: Postemergence, 0 to 100 scale (0 no effect, 100 complete control); for Plant response rating, Corn: 125 g ai/ha; for Corn plant response rating: 500 g ai/ha, visual injury vs untreated controls after approx. 10 days
How it was run: as §1

[14] = test system: blackgrass (Alopecurus myosuroides); experiment: Test A postemergence, blackgrass; conditions: Postemergence, 0 to 100 scale (0 no effect, 100 complete control); for Plant response rating, Blackgrass: 125 g ai/ha; for Blackgrass plant response rating: 500 g ai/ha, visual injury vs untreated controls after approx. 10 days
How it was run: as §1

[15] = test system: galium (catchweed bedstraw, Galium aparine); experiment: Test A postemergence, galium; conditions: Postemergence, 0 to 100 scale (0 no effect, 100 complete control); for Plant response rating, Galium: 125 g ai/ha; for Galium plant response rating: 500 g ai/ha, visual injury vs untreated controls after approx. 10 days
How it was run: as §2

[16] = 125 g ai/ha, visual injury, approx. 10 days

Row | SMILES | Plant response rating, Barnyardgrass [1, 16] | Plant response rating, Barnyardgrass ([1]; 500 g ai/ha) | Plant response rating, Kochia (kochia (Bassia scoparia) [2]; [16]) | Plant response rating, Kochia (kochia (Bassia scoparia) [2]; 500 g ai/ha) | Plant response rating, Ragweed [3, 16] | Plant response rating, Ragweed ([3]; 500 g ai/ha) | Plant response rating, Ryegrass, Italian [4, 16] | Plant response rating, Ryegrass, Italian ([4]; 500 g ai/ha) | Plant response rating, Foxtail, Giant [5, 16] | Plant response rating, Foxtail, Giant ([5]; 500 g ai/ha) | Plant response rating, Pigweed [6, 16] | Plant response rating, Pigweed ([6]; 500 g ai/ha) | Plant response rating, Barnyardgrass [7] | Barnyardgrass plant response rating [7] | Plant response rating, Kochia (kochia (Bassia scoparia) [8]) | Kochia plant response rating (kochia (Bassia scoparia) [8]) | Plant response rating, Ragweed [9] | Ragweed plant response rating [9] | Plant response rating, Ryegrass, Italian [10] | Ryegrass, Italian plant response rating [10] | also measured
1 | Cc1cc(C)c(C(=O)N2CCC3(CC2)OCCCO3)cc1NS(=O)(=O)C(F)(F)F [Compound 194] | 90 | 90 | 40 | 90 | 80 | 90 | 30 | 100 | 80 | 100 | 90 | 100 | 0 | 80 | 20 | 40 | 60 | 90 | 0 | 50 | Plant response rating, Foxtail, Giant [11]: 10; Foxtail, Giant plant response rating [11]: 80; Plant response rating, Pigweed [12]: 0; Pigweed plant response rating [12]: 50; Plant response rating, Wheat [13]: 0; Wheat plant response rating [13]: 60; Plant response rating, Corn (corn (Zea mays)): 0; Corn plant response rating (corn (Zea mays)): 0; Plant response rating, Blackgrass [14]: 0; Blackgrass plant response rating [14]: 0; Plant response rating, Galium [15]: 70; Galium plant response rating [15]: 90
2 | Cc1cc(C)c(C(=O)N2CCC3(CCCCC3)CC2)cc1NS(=O)(=O)C(F)(F)F [Compound 195] | 60 | 90 | 0 | 0 | 0 | 0 | 20 | 90 | 70 | 90 | 60 | 80 | 0 | 0 | 0 | 0 | 0 | 50 | 0 | 0 | Plant response rating, Foxtail, Giant [11]: 0; Foxtail, Giant plant response rating [11]: 0; Plant response rating, Pigweed [12]: 0; Pigweed plant response rating [12]: 0; Plant response rating, Wheat [13]: 0; Wheat plant response rating [13]: 0; Plant response rating, Corn (corn (Zea mays)): 20; Corn plant response rating (corn (Zea mays)): 0; Plant response rating, Blackgrass [14]: 0; Blackgrass plant response rating [14]: 0; Plant response rating, Galium [15]: 10; Galium plant response rating [15]: 20
3 | Cc1cc(Cl)c(NS(=O)(=O)C(F)(F)F)cc1C1=NOC(C)(C)C1 [Compound 203] | 90 | 90 | 60 | 90 | 80 | 90 | 50 | 100 | 30 | 100 | 60 | 100 | 60 | 80 | 40 | 80 | 70 | 90 | 0 | 60 | Plant response rating, Foxtail, Giant [11]: 0; Foxtail, Giant plant response rating [11]: 50; Plant response rating, Pigweed [12]: 20; Pigweed plant response rating [12]: 60; Plant response rating, Wheat [13]: 40; Wheat plant response rating [13]: 70; Plant response rating, Corn (corn (Zea mays)): 10; Corn plant response rating (corn (Zea mays)): 60; Plant response rating, Blackgrass [14]: 20; Blackgrass plant response rating [14]: 30; Plant response rating, Galium [15]: 80; Galium plant response rating [15]: 90
4 | Cc1cc(Cl)c(NS(=O)(=O)C(F)(F)F)cc1C1=NOC2(CCCC2)C1 [Compound 204] | 90 | 90 | 40 | 90 | 10 | 90 | 90 | 100 | 80 | 100 | 90 | 100 | 0 | 80 | 30 | 70 | 20 | 80 | 40 | 50 | Plant response rating, Foxtail, Giant [11]: 10; Foxtail, Giant plant response rating [11]: 60; Plant response rating, Pigweed [12]: 20; Pigweed plant response rating [12]: 70; Plant response rating, Wheat [13]: 50; Wheat plant response rating [13]: 70; Plant response rating, Corn (corn (Zea mays)): 10; Corn plant response rating (corn (Zea mays)): 50; Plant response rating, Blackgrass [14]: 0; Blackgrass plant response rating [14]: 40; Plant response rating, Galium [15]: 50; Galium plant response rating [15]: 80
5 | Cc1cc(C)c(C2=NOC(C)(C)C2)cc1NS(=O)(=O)C(F)(F)F [Compound 206] | 90 | 90 | 80 | 90 | 40 | 80 | 80 | 90 | 80 | 90 | 90 | 100 | 60 | 80 | 20 | 70 | 60 | 90 | 50 | 90 | Plant response rating, Foxtail, Giant [11]: 50; Foxtail, Giant plant response rating [11]: 60; Plant response rating, Pigweed [12]: 60; Pigweed plant response rating [12]: 70; Plant response rating, Wheat [13]: 60; Wheat plant response rating [13]: 80; Plant response rating, Corn (corn (Zea mays)): 0; Corn plant response rating (corn (Zea mays)): 70; Plant response rating, Blackgrass [14]: 50; Blackgrass plant response rating [14]: 50; Plant response rating, Galium [15]: 70; Galium plant response rating [15]: 80
6 | Cc1cc(C)c(N(S(=O)(=O)C(F)(F)F)S(=O)(=O)C(F)(F)F)cc1C1=NOC2(CCCC2)C1 [Compound 208] | 90 | 90 | 90 | 90 | 0 | 0 | 70 | 80 | 90 | 100 | 60 | 70 | 0 | 30 | 10 | 30 | 20 | 20 | 0 | 40 | Plant response rating, Foxtail, Giant [11]: 0; Foxtail, Giant plant response rating [11]: 40; Plant response rating, Pigweed [12]: 20; Pigweed plant response rating [12]: 50; Plant response rating, Wheat [13]: 0; Wheat plant response rating [13]: 50; Plant response rating, Corn (corn (Zea mays)): 0; Corn plant response rating (corn (Zea mays)): 20; Plant response rating, Blackgrass [14]: 0; Blackgrass plant response rating [14]: 20; Plant response rating, Galium [15]: 30; Galium plant response rating [15]: 70
7 | CCC1(CC)CC(c2cc(NS(=O)(=O)C(F)(F)F)c(C)cc2C)=NO1 [Compound 209] | 40 | 90 | 0 | 80 | 0 | 60 | 50 | 90 | 20 | 70 | 0 | 50 | 20 | 70 | 20 | 40 | 40 | 60 | 40 | 90 | Plant response rating, Foxtail, Giant [11]: 0; Foxtail, Giant plant response rating [11]: 10; Plant response rating, Pigweed [12]: 30; Pigweed plant response rating [12]: 50; Plant response rating, Wheat [13]: 0; Wheat plant response rating [13]: 0; Plant response rating, Corn (corn (Zea mays)): 0; Corn plant response rating (corn (Zea mays)): 30; Plant response rating, Blackgrass [14]: 20; Blackgrass plant response rating [14]: 30; Plant response rating, Galium [15]: 70; Galium plant response rating [15]: 80
